The test system of this experiment is CD2F1 mice, L1210 leukemia ip, survival T/C. Nature of the experiment: NCI In Vivo Anticancer Drug Screen. Data for tumor model L1210 Leukemia (intraperitoneal) in CD2F1 (CDF1) mice. Particulars: higher = longer survival. The gist of the method:
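Tumor-bearing mice (transplanted tumor) were split into treated and vehicle control groups, and the measured endpoint of each treated group was divided by that of its vehicle controls.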

Where [1] appears, read: endpoint: mean survival time, dose: 200.0 mg/kg/injection, schedule: Q04DX003 (ip), vehicle: saline with Tween-80.
The mark [2] stands for this setting: endpoint: mean survival time, dose: 50.0 mg/kg/injection, schedule: Q01DX009 (ip), vehicle: saline with Tween-80.
The mark [3] stands for this setting: endpoint: mean survival time, dose: 100.0 mg/kg/injection, schedule: Q01DX009 (ip), vehicle: saline with Tween-80.
Where [4] appears, read: endpoint: mean survival time, dose: 200.0 mg/kg/injection, schedule: Q01DX009 (ip), vehicle: saline with Tween-80.
The mark [5] stands for this setting: endpoint: mean survival time, dose: 100.0 mg/kg/injection, schedule: Q01DX001 (ip), vehicle: saline with Tween-80.
Where [6] appears, read: endpoint: mean survival time, dose: 25.0 mg/kg/injection, schedule: Q01DX009 (ip), vehicle: saline with Tween-80.
Setting [7] is: endpoint: mean survival time, dose: 100.0 mg/kg/injection, schedule: Q04DX003 (ip), vehicle: saline with Tween-80.
[8] abbreviates: endpoint: mean survival time, dose: 400.0 mg/kg/injection, schedule: Q01DX009 (ip), vehicle: saline with Tween-80.

Molecules are shown by their SMILES. Where “and” joins values, the source holds several entries; their conditions need not be identical. Identical values can stand only once. Toxic doses and inconclusive results are not listed.

For the compound `NC(=S)N/N=C/c1ccc(OC(=O)COc2ccccc2)cn1`, the T/C was 123 % of control (endpoint: mean survival time, dose: 88.0 mg/kg/injection, schedule: Q04DX003 (ip), vehicle: saline with Tween-80); 118 % of control (endpoint: mean survival time, dose: 100.0 mg/kg/injection, schedule: Q04DX002 (ip), vehicle: saline with Tween-80); 122 % of control (endpoint: mean survival time, dose: 200.0 mg/kg/injection, schedule: Q04DX002 (ip), vehicle: saline with Tween-80); 118 % of control under setting [1]; 152 % of control and 155 % of control (endpoint: mean survival time, dose: 400.0 mg/kg/injection, schedule: Q04DX002 (ip), vehicle: saline with Tween-80); 174 % of control (endpoint: mean survival time, dose: 800.0 mg/kg/injection, schedule: Q04DX002 (ip), vehicle: saline with Tween-80).
Turning to `C/C=C/COC1CCS(=O)(=O)C1` (centres undefined), the T/C under setting [2] was 104 % of control, the T/C under setting [3] is 97 % of control and the T/C under setting [4] was 97 % of control.
For `CC1OC(OCc2ccc(-c3ccccc3)cc2)CC(N)C1O` (centres undefined), the T/C by setting is: (endpoint: mean survival time, dose: 0.78 mg/kg/injection, schedule: Q01DX001 (ip), vehicle: water) 94 % of control; (endpoint: mean survival time, dose: 1.56 mg/kg/injection, schedule: Q01DX001 (ip), vehicle: water) 97 % of control; (endpoint: mean survival time, dose: 3.13 mg/kg/injection, schedule: Q01DX001 (ip), vehicle: water) 95 % of control; (endpoint: mean survival time, dose: 6.25 mg/kg/injection, schedule: Q01DX001 (ip), vehicle: water) 106 % of control; (endpoint: mean survival time, dose: 12.5 mg/kg/injection, schedule: Q01DX001 (ip), vehicle: water) 97 % of control; (endpoint: mean survival time, dose: 25.0 mg/kg/injection, schedule: Q01DX001 (ip), vehicle: water) 105 % of control. Moreover, the T/C reads like this: (endpoint: median survival time, dose: 1.56 mg/kg/injection, schedule: Q04DX003 (ip), vehicle: water) 106 % of control; (endpoint: median survival time, dose: 3.13 mg/kg/injection, schedule: Q04DX003 (ip), vehicle: water) 98 % of control; (endpoint: median survival time, dose: 6.25 mg/kg/injection, schedule: Q04DX003 (ip), vehicle: water) 109 % of control; (endpoint: median survival time, dose: 12.5 mg/kg/injection, schedule: Q04DX003 (ip), vehicle: water) 100 % of control; (endpoint: median survival time, dose: 25.0 mg/kg/injection, schedule: Q04DX003 (ip), vehicle: water) 106 % of control.
As to `COC(=O)C(CSCSCc1ccccc1)NC(=O)C(CSCc1ccccc1)NC(=O)CCNC(=O)OCc1ccccc1` (centres undefined), the T/C is 96 % of control (endpoint: mean survival time, dose: 25.0 mg/kg/injection, schedule: Q01DX009 (ip), vehicle: Klucel (hydroxypropylcellulose) (HPC)); 93 % of control (endpoint: mean survival time, dose: 50.0 mg/kg/injection, schedule: Q01DX009 (ip), vehicle: Klucel (hydroxypropylcellulose) (HPC)); 88 % of control (endpoint: mean survival time, dose: 100.0 mg/kg/injection, schedule: Q01DX009 (ip), vehicle: Klucel (hydroxypropylcellulose) (HPC)); 93 % of control (endpoint: mean survival time, dose: 200.0 mg/kg/injection, schedule: Q01DX009 (ip), vehicle: Klucel (hydroxypropylcellulose) (HPC)); 90 % of control (endpoint: mean survival time, dose: 400.0 mg/kg/injection, schedule: Q01DX009 (ip), vehicle: Klucel (hydroxypropylcellulose) (HPC)).
Consider `COC(=O)C(C)C1CCC2C3=CC=C4CC(OC(C)=O)CCC4(C)C3=CCC21C` (centres undefined), for which the T/C is, setting by setting: (endpoint: mean survival time, dose: 100.0 mg/kg/injection, schedule: Q01DX001 (ip), vehicle: Klucel (hydroxypropylcellulose) (HPC)) 98 % of control; (endpoint: mean survival time, dose: 200.0 mg/kg/injection, schedule: Q01DX001 (ip), vehicle: Klucel (hydroxypropylcellulose) (HPC)) 92 % of control; (endpoint: mean survival time, dose: 400.0 mg/kg/injection, schedule: Q01DX001 (ip), vehicle: Klucel (hydroxypropylcellulose) (HPC)) 92 % of control.
As to `O=S(=O)(O)C(Nc1ccccn1)c1ccccc1` (centres undefined), the T/C runs as follows: (endpoint: mean survival time, dose: 25.0 mg/kg/injection, schedule: Q01DX001 (ip), vehicle: saline with Tween-80) 98 % of control; (endpoint: mean survival time, dose: 50.0 mg/kg/injection, schedule: Q01DX001 (ip), vehicle: saline with Tween-80) 106 % of control; under setting [5], 106 % of control.
As for `COc1ccccc1-n1c(O)c(N=Nc2ccccc2)c(=O)n(-c2ccccc2)c1=S`, for the setting “endpoint: mean survival time, dose: 100.0 mg/kg/injection, schedule: Q04DX003 (ip), vehicle: acetone”, the T/C is 90 % of control.
With `CCN(CC)CCNc1ccc(C)c2sc3ccc(O)cc3c(=O)c12`, the T/C is 106 % of control (endpoint: median survival time, dose: 12.0 mg/kg/injection, schedule: Q01DX009 (ip), vehicle: saline with Tween-80); 110 % of control (endpoint: median survival time, dose: 12.5 mg/kg/injection, schedule: Q01DX009 (ip), vehicle: saline with Tween-80); 121 % of control (endpoint: median survival time, dose: 25.0 mg/kg/injection, schedule: Q01DX009 (ip), vehicle: saline with Tween-80); 159 % of control (endpoint: median survival time, dose: 50.0 mg/kg/injection, schedule: Q01DX009 (ip), vehicle: saline with Tween-80); 103 % of control (endpoint: median survival time, dose: 200.0 mg/kg/injection, schedule: Q01DX009 (ip), vehicle: saline with Tween-80).
Turning to `OCc1ccc[n+](CCc2c[nH]c3ccccc23)c1`, the T/C by setting is: under setting [2], 104 % of control; under setting [3], 95 % of control.
In the case of `CN1CCCC(OC(=O)C(c2ccccc2)C2(O)CCCC2)C1` (centres undefined), for the setting “endpoint: mean survival time, dose: 75.0 mg/kg/injection, schedule: Q01DX001 (ip), vehicle: saline”, the T/C is 98 % of control.
As for `CC(=O)[O][Hg][c]1ccccc1`, the T/C was 100 % of control (endpoint: mean survival time, dose: 12.5 mg/kg/injection, schedule: Q01DX001 (ip), vehicle: Klucel (hydroxypropylcellulose) (HPC)); 106 % of control (endpoint: mean survival time, dose: 12.5 mg/kg/injection, schedule: Q01DX009 (ip), vehicle: saline with Tween-80); 106 % of control (endpoint: mean survival time, dose: 25.0 mg/kg/injection, schedule: Q01DX001 (ip), vehicle: Klucel (hydroxypropylcellulose) (HPC)); 98 % of control under setting [6].
Consider `Cc1cc[n+](C)c(-c2ccccc2)c1`, for which the T/C reads like this: (endpoint: mean survival time, dose: 6.25 mg/kg/injection, schedule: Q01DX009 (ip), vehicle: saline sonified) 100 % of control; (endpoint: mean survival time, dose: 12.5 mg/kg/injection, schedule: Q01DX009 (ip), vehicle: saline sonified) 101 % of control; (endpoint: mean survival time, dose: 25.0 mg/kg/injection, schedule: Q01DX009 (ip), vehicle: saline sonified) 109 % of control.
Consider `CC(C)C1(NC(=O)C2C=C3c4cccc5[nH]cc(c45)CC3N(C)C2)OC2(O)C3CCCN3C(=O)C(Cc3ccccc3)N2C1=O` (centres undefined), for which the T/C (endpoint: mean survival time, dose: 50.0 mg/kg/injection, schedule: Q04DX003 (ip), vehicle: saline with Tween-80) was 96 % of control; the T/C under setting [7] was 105 % of control; the T/C under setting [1] is 100 % of control.
With `CCCCCCCCCC(=O)Nc1ccc(C(=O)OCC)cc1`, the T/C under setting [3] was 95 % of control, the T/C under setting [4] was 97 % of control and the T/C under setting [8] is 98 % of control.
As for `CN(C)c1nc2c(c(=O)n(C)c(=O)n2C)n1C`, the T/C by setting is: (endpoint: mean survival time, dose: 12.5 mg/kg/injection, schedule: Q01DX005 (ip), vehicle: distilled water + Tween-80) 94 % of control; (endpoint: mean survival time, dose: 25.0 mg/kg/injection, schedule: Q01DX005 (ip), vehicle: distilled water + Tween-80) 93 % of control; (endpoint: mean survival time, dose: 50.0 mg/kg/injection, schedule: Q01DX005 (ip), vehicle: distilled water + Tween-80) 93 % of control; (endpoint: mean survival time, dose: 100.0 mg/kg/injection, schedule: Q01DX005 (ip), vehicle: distilled water + Tween-80) 88 % of control.
With `CCN(CC)CC(O)CNc1ncnc(N)c1C(=C(C)C)c1ccc(Cl)cc1` (centres undefined), the T/C runs as follows: under setting [6], 101 % of control; under setting [2], 97 % of control; under setting [3], 97 % of control; under setting [7], 101 % of control.
In the case of `O=[N+]([O-])c1ncn[nH]1`, the T/C is, setting by setting: under setting [3], 111 % of control; under setting [4], 100 % of control; under setting [8], 92 % of control.
As to `O=[N+]([O-])c1ccc(Sc2ccc(Br)cc2)cc1`, the T/C under setting [5] was 97 % of control; the T/C (endpoint: mean survival time, dose: 200.0 mg/kg/injection, schedule: Q01DX001 (ip), vehicle: saline with Tween-80) is 106 % of control; the T/C (endpoint: mean survival time, dose: 400.0 mg/kg/injection, schedule: Q01DX001 (ip), vehicle: saline with Tween-80) was 104 % of control.
Take `CC(O)COCCOCCO` (centres undefined): the T/C is 100 % of control (endpoint: mean survival time, dose: 100.0 mg/kg/injection, schedule: Q01DX009 (ip), vehicle: saline); 103 % of control (endpoint: mean survival time, dose: 200.0 mg/kg/injection, schedule: Q01DX009 (ip), vehicle: saline); 100 % of control (endpoint: mean survival time, dose: 400.0 mg/kg/injection, schedule: Q01DX009 (ip), vehicle: saline).
With `NNC(=S)S`, the T/C (endpoint: mean survival time, dose: 5.0 mg/kg/injection, schedule: Q01DX001 (ip), vehicle: saline) is 96 % of control and the T/C (endpoint: mean survival time, dose: 10.0 mg/kg/injection, schedule: Q01DX001 (ip), vehicle: saline) was 98 % of control.
For `C=CCN1/C(=C/C=C\c2sc3ccccc3[n+]2CC=C)Sc2ccccc21`, the T/C is 110 % of control (endpoint: mean survival time, dose: 2.0 mg/kg/injection, schedule: Q04DX003 (ip), vehicle: saline) and 115 % of control (endpoint: mean survival time, dose: 4.0 mg/kg/injection, schedule: Q04DX003 (ip), vehicle: saline).

Source of the values: PubChem BioAssay AID256 (DTP/NCI, 2004).
